# Measurements from patent US10590086B2, “Pharmaceutical compound” (IOmet Pharma Ltd., priority 2014, dated 2020).
# Legend:
# [1] = biological target: T1, IDO (Homo sapiens, UniProt P14902); experiment: hIDO biochemical coupled assay; details: 45 μM L-tryptophan, read-out: hIDO biochemical assay pIC50 (converted)
# [2] = biological target: T2, TDO (Homo sapiens, UniProt P48775); experiment: hTDO biochemical coupled assay; details: 330 μM L-tryptophan; for IC50: 17 minutes, room temperature, read-out: hTDO biochemical assay pIC50 (converted)
# T2 sequence (P48775 whole entry): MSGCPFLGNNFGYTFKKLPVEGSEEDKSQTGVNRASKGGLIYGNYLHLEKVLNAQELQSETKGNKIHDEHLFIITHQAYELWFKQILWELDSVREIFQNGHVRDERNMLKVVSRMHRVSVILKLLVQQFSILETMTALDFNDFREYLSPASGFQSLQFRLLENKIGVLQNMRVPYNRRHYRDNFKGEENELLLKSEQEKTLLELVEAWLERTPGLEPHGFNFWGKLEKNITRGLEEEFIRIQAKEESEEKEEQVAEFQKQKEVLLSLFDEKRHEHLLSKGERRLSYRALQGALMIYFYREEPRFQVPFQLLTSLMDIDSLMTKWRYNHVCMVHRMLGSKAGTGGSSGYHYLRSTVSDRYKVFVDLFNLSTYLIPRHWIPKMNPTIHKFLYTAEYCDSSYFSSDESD
# [3] = biological target: T1, IDO; experiment: SKOV3 kynurenine cell-based assay (IDO induced by IFN-γ); set-up: IDO expression was induced in the SKOV3 cells by the addition of 500 ng/ml IFN-γ; endogenous in cells; host or cells: SKOV3 (human ovarian adenocarcinoma), induced with IFN-γ; details: 48 hours, read-out: SKOV3 Kynurenine cell based assay pIC50 (converted)
# Procedure, shortened: (§1)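 Kynurenine in the culture supernatant was measured by absorbance at 490 nm after 5 minutes with Ehrlich's reagent. Cells had been exposed ±compound for 48 hours at 37 °C in phenol red-free RPMI, 10% FCS, 2 mM L-glutamine and 500 μM L-tryptophan. Seeding was 30,000/well for A172 (TDO) and 40,000/well for SKOV3 (IDO, induced with 500 ng/ml IFN-γ).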
# [4] = biological target: T2, TDO; experiment: A172 kynurenine cell-based assay; set-up: This assay utilised cancer cells which expressed either TDO or IDO; endogenous in cells; host or cells: A172 (human glioblastoma); details: A172 human glioblastoma cells, 48 hours, read-out: A172 Kynurenine cell based assay pIC50 (converted)
# Procedure, shortened: as §1
# [5] = SKOV3 human ovarian adenocarcinoma cells, 500 ng/ml IFN-γ, 500 μM L-tryptophan
# T1 sequence (P14902 whole entry): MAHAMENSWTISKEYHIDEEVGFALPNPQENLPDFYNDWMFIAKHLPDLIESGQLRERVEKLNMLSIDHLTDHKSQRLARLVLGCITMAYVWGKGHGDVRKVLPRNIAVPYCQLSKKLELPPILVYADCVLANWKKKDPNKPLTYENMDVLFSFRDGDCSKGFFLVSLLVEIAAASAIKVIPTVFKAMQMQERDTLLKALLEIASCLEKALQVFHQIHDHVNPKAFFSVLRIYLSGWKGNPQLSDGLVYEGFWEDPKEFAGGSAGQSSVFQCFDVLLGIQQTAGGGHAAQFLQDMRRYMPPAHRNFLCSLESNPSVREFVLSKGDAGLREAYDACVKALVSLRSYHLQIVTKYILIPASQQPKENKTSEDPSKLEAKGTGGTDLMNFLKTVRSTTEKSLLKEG
"IC50 ([1]; 17 minutes, room temperature)",IC50 [2],"IC50 [3, 5]",IC50 ([4]; 500 μM L-tryptophan),IC50 [1],hTDO biochemical assay pIC50 [2],"IC50 ([3]; SKOV3 cells, IDO induced by 500 ng/ml IFN-γ)",IC50 [4],SMILES
3.24 to 31.6 µM,< 3.16 µM,> 100 µM,< 3.16 µM,,,,,CC(=O)NCCN1CCN(c2cc(Cl)cc3[nH]ncc23)CC1(C)C [Compound 421]
< 3.16 µM,< 3.16 µM,3.24 to 31.6 µM,< 3.16 µM,,,,,CC1(C)CN(c2cc(C#N)cc3[nH]ncc23)CCN1S(C)(=O)=O [Compound 334]
3.24 to 31.6 µM,< 3.16 µM,3.24 to 31.6 µM,< 3.16 µM,,,,,CS(=O)(=O)c1ccc(-c2cc(Cl)cc3[nH]ncc23)cc1F [Compound 265]
> 100 µM,< 3.16 µM,< 3.16 µM,< 3.16 µM,,,,,CNC(=O)c1ccc(N2CCN(c3cc(Cl)cc4[nH]ncc34)CC2)cc1 [Compound 445]
< 3.16 µM,< 3.16 µM,< 3.16 µM,< 3.16 µM,,,,,O=C1NC2(CCN(c3cc(Cl)cc4[nH]ncc34)CC2)C(=O)N1CC1CCOCC1 [Compound 391]
3.24 to 31.6 µM,< 3.16 µM,3.24 to 31.6 µM,< 3.16 µM,,,,,Clc1cc(N2CCC(c3nccs3)CC2)c2cn[nH]c2c1 [Compound 313]
32.4 to 100 µM,< 3.16 µM,> 100 µM,3.24 to 31.6 µM,,,,,CC(=O)N1CCOC2(CCN(c3cc(Cl)cc4[nH]ncc34)CC2)C1 [Compound 409]
32.4 to 100 µM,< 3.16 µM,3.24 to 31.6 µM,< 3.16 µM,,,,,Cn1cc2c(n1)CCN(c1cc(Cl)cc3[nH]ncc13)C2 [Compound 360]
32.4 to 100 µM,< 3.16 µM,3.24 to 31.6 µM,< 3.16 µM,,,,,NS(=O)(=O)N1CCC2(CCN(c3cc(Cl)cc4[nH]ncc34)CC2)CC1 [Compound 363]
> 100 µM,3.24 to 31.6 µM,32.4 to 100 µM,3.24 to 31.6 µM,,,,,CNC(=O)C1CCCN(c2cc(Cl)cc3[nH]ncc23)C1 (stereo not shown) [Compound 210]
3.24 to 31.6 µM,< 3.16 µM,32.4 to 100 µM,< 3.16 µM,,,,,OC1(c2cc(Cl)cc3[nH]ncc23)CCOCC1 [Compound 319]
32.4 to 100 µM,< 3.16 µM,3.24 to 31.6 µM,< 3.16 µM,,,,,CC(C)CC(O)c1cc(Cl)cc2[nH]ncc12 (stereo not shown) [Compound 272]
3.24 to 31.6 µM,< 3.16 µM,3.24 to 31.6 µM,< 3.16 µM,,,,,OC1(c2cc(Cl)cc3[nH]ncc23)CCCC1 [Compound 320]
> 100 µM,3.24 to 31.6 µM,3.24 to 31.6 µM,3.24 to 31.6 µM,,,,,Clc1cc(N2CCOCC2)c2cn[nH]c2c1 [Compound 327]
> 100 µM,3.24 to 31.6 µM,32.4 to 100 µM,3.24 to 31.6 µM,,,,,CN(C)S(=O)(=O)N1CCN(c2cccc3[nH]ncc23)CC1 [Compound 21]
32.4 to 100 µM,< 3.16 µM,3.24 to 31.6 µM,< 3.16 µM,,,,,CS(=O)(=O)N1CC2(CCN(c3cc(Cl)cc4[nH]ncc34)CC2)C1 [Compound 351]
> 100 µM,> 100 µM,3.24 to 31.6 µM,> 100 µM,,,,,CC(=O)N(C)c1cc(C2CCN(S(C)(=O)=O)CC2)c2cn[nH]c2c1 [Compound 337]
< 3.16 µM,< 3.16 µM,< 3.16 µM,< 3.16 µM,,,,,CC(=O)N1CCC(c2cc(Cl)cc3[nH]ncc23)CC1(C)C (stereo not shown) [Compound 400]
> 100 µM,< 3.16 µM,3.24 to 31.6 µM,< 3.16 µM,,,,,CC(=O)Nc1ccc(-c2cc(Cl)cc3[nH]ncc23)cc1 [Compound 246]
3.24 to 31.6 µM,< 3.16 µM,3.24 to 31.6 µM,< 3.16 µM,,,,,Clc1cc(N2CC=CCC2)c2cn[nH]c2c1 [Compound 345]

"IC50 ([1]; 17 minutes, room temperature)",IC50 [2],"IC50 [3, 5]",IC50 ([4]; 500 μM L-tryptophan),IC50 [1],hTDO biochemical assay pIC50 [2],"IC50 ([3]; SKOV3 cells, IDO induced by 500 ng/ml IFN-γ)",IC50 [4],SMILES
> 100 µM,< 3.16 µM,> 100 µM,< 3.16 µM,,,,,O[C@@H]1CCCC[C@@H]1c1cc(Cl)cc2[nH]ncc12 [Compound 419]
< 3.16 µM,< 3.16 µM,< 3.16 µM,< 3.16 µM,,,,,O=C1NC2(CCN(c3cc(Cl)cc4[nH]ncc34)CC2)C(=O)N1CC1CCCCC1 [Compound 389]
> 100 µM,> 100 µM,32.4 to 100 µM,32.4 to 100 µM,,,,,CC(=O)N1CCN(c2cc(C#N)cc3[nH]ncc23)CC1 [Compound 323]
> 100 µM,< 3.16 µM,3.24 to 31.6 µM,< 3.16 µM,,,,,CN1CC2(CCN(c3cc(Cl)cc4[nH]ncc34)CC2)CC1=O [Compound 291]
3.24 to 31.6 µM,< 3.16 µM,3.24 to 31.6 µM,< 3.16 µM,,,,,CC(C)N1C(=O)NC2(CCN(c3cc(Cl)cc4[nH]ncc34)CC2)C1=O [Compound 316]
3.24 to 31.6 µM,< 3.16 µM,32.4 to 100 µM,< 3.16 µM,,,,,CS(=O)(=O)NC1CCN(c2cc(Cl)cc3[nH]ncc23)CC1 [Compound 97]
> 100 µM,< 3.16 µM,3.24 to 31.6 µM,< 3.16 µM,,,,,O=C1CCCC2(CCN(c3cc(Cl)cc4[nH]ncc34)CC2)N1 [Compound 216]
> 100 µM,< 3.16 µM,> 100 µM,< 3.16 µM,,,,,Cn1ccnc1N1CCN(c2cc(Cl)cc3[nH]ncc23)CC1 [Compound 436]
> 100 µM,< 3.16 µM,3.24 to 31.6 µM,< 3.16 µM,,,,,CS(=O)(=O)Nc1ccc2c(c1)CCN(c1cc(Cl)cc3[nH]ncc13)C2 [Compound 342]
32.4 to 100 µM,< 3.16 µM,32.4 to 100 µM,< 3.16 µM,,,,,CS(=O)(=O)N1CCC2(CCN(c3cc(Cl)cc4[nH]ncc34)CC2)C1 [Compound 349]
< 3.16 µM,< 3.16 µM,< 3.16 µM,< 3.16 µM,,,,,O=C1NC2(CCN(c3cc(Cl)cc4[nH]ncc34)CC2)C(=O)N1CC1CC1 [Compound 390]
> 100 µM,< 3.16 µM,3.24 to 31.6 µM,< 3.16 µM,,,,,CC(=O)N1CCC(n2cc(-c3cc(Cl)cc4[nH]ncc34)cn2)CC1 [Compound 348]
3.24 to 31.6 µM,< 3.16 µM,3.24 to 31.6 µM,< 3.16 µM,22.4 µM,6.34,10.5 µM,0.339 µM,"CS(=O)(=O)N1CCN(c2cc(Cl)cc3[nH]ncc23)CC1 [Compound 28, 6-chloro-4-(4-(methylsulfonyl)piperazin-1-yl)-1H-indazole]"
> 100 µM,> 100 µM,32.4 to 100 µM,3.24 to 31.6 µM,,,,,CS(=O)(=O)N1CCN(c2cc(Cl)cc3[nH]ncc23)C2CCCCC21 (racemic) [Compound 341]
> 100 µM,< 3.16 µM,3.24 to 31.6 µM,< 3.16 µM,,,,,Cc1c2c(nn1C)CCN(c1cc(Cl)cc3[nH]ncc13)C2 [Compound 378]
> 100 µM,< 3.16 µM,> 100 µM,< 3.16 µM,,,,,Clc1cc(N2CCc3cn[nH]c3C2)c2cn[nH]c2c1 [Compound 417]
> 100 µM,< 3.16 µM,< 3.16 µM,< 3.16 µM,,,,,CC(=O)NCC1(C)CN(c2cc(Cl)cc3[nH]ncc23)C1 [Compound 446]
> 100 µM,< 3.16 µM,< 3.16 µM,< 3.16 µM,,,,,CN1CCN(C2CCN(c3cc(Cl)cc4[nH]ncc34)CC2)C1=O [Compound 411]
> 100 µM,< 3.16 µM,32.4 to 100 µM,< 3.16 µM,,,,,Clc1cc(N2CCc3ccccc3C2)c2cn[nH]c2c1 [Compound 304]
